Test results published in US6737383B1, “Herbicidal oxadiazolidines” (priority 1999, dated 2004).

Legend:
rape = assay: Test B pre/postemergence rape; assay type: in vivo, Brassica napus; conditions: for Rape plant response rating (0 to 10 scale): 0 is no effect
How it was run: (§1)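 Response is a visual 0-to-10 score relative to untreated plants, where 0 means no effect and 10 means complete control, taken twelve to sixteen days after application. Treatments went onto soil at planting and onto foliage of 1- to 4-leaf plants, using a surfactant-containing non-phytotoxic solvent.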

corn = assay: Test B pre/postemergence corn; assay type: in vivo, Zea mays; conditions: for Corn plant response rating (0 to 10 scale): 0 is no effect
How it was run: as §1

smallflower flatsedge = assay: Test B flood test smallflower flatsedge; assay type: in vivo, Cyperus difformis
How it was run: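 Read-out is a visual response score from 0 (no effect) to 10 (complete control), assigned by comparison with untreated controls. Treatment was applied at the 2-leaf stage, and plants stayed in the greenhouse for twelve to sixteen days before scoring.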

soybean = assay: Test B pre/postemergence soybean; assay type: in vivo, Glycine max; conditions: for Soybean plant response rating (0 to 10 scale): 0 is no effect
How it was run: as §1

[1] = Postemergence, Rate 125 g/ha, scale of 0 to 10 where 0 is no effect and 10 is complete control
[2] = Preemergence, Rate 62 g/ha, scale of 0 to 10 where 0 is no effect and 10 is complete control
[3] = Preemergence, Rate 125 g/ha, 10 is complete control
[4] = Preemergence, Rate 500 g/ha, scale 0 to 10 (0 no effect, 10 complete control)
[5] = Rate 62 g/ha, Postemergence, scale of 0 to 10 where 0 is no effect and 10 is complete control
[6] = Rate 250 g/ha, Postemergence, scale 0 to 10, 0 is no effect, 10 is complete control
[7] = Rate 500 g/ha, Postemergence, scale 0 to 10
[8] = Preemergence, Rate 250 g/ha, scale 0 to 10, 0 is no effect, 10 is complete control
[9] = Preemergence, Rate 500 g/ha, scale of 0 to 10 where 0 is no effect and 10 is complete control
[10] = Rate 125 g/ha, Postemergence, scale 0 to 10
[11] = Rate 62 g/ha, headed Pre-emergence (flood test species), scale 0 to 10 (0 no effect, 10 complete control)
[12] = Rate 125 g/ha, Pre-emergence, flood test species, scale 0 to 10 where 0 is no effect and 10 is complete control
[13] = Rate 250 g/ha, Pre-emergence, flood-test species, scale 0 to 10, 0 is no effect, 10 is complete control
[14] = Rate 500 g/ha, Pre-emergence, flood test species, scale 0 to 10 (0 no effect, 10 complete control)
[15] = Preemergence, Rate 250 g/ha, scale of 0 to 10 where 0 is no effect and 10 is complete control
[16] = Rate 125 g/ha, Preemergence, scale of 0 to 10 where 0 is no effect and 10 is complete control
[17] = Rate 500 g/ha, Postemergence, scale 0 to 10, 0 no effect, 10 complete control

| SMILES | Rape plant response rating (rape; [2]) | Rape plant response rating (0 to 10 scale) (rape; [3]) | Rape plant response rating (rape; [5]) | Rape plant response rating (rape; [7]) | Corn plant response rating (corn; [2]) | Corn plant response rating (0 to 10 scale) (corn; [3]) | Corn plant response rating (corn; [8]) | Corn plant response rating (corn; [5]) | Corn plant response rating (corn; [7]) | Soybean plant response rating (soybean; [2]) | Soybean plant response rating (0 to 10 scale) (soybean; [3]) | Soybean plant response rating (soybean; [8]) | Soybean plant response rating (soybean; [5]) | Soybean plant response rating (soybean; [7]) | Plant response rating, Rape (rape; [9]) | Rape plant response rating (rape; [10]) | Plant response rating (0 to 10; 0 is no effect, 10 is complete control), Rape (rape; Rate 250 g/ha, Postemergence) | Plant response rating, Corn (corn; [9]) | Corn plant response rating (corn; [10]) | Plant response rating (0 to 10; 0 is no effect, 10 is complete control), Corn (corn; Rate 250 g/ha, Postemergence) | further results |
| --- | --- | --- | --- | --- | --- | --- | --- | --- | --- | --- | --- | --- | --- | --- | --- | --- | --- | --- | --- | --- | --- |
| Cc1ccccc1-n1c(=O)on(C(=O)N(c2cccc(F)c2F)C(C)C)c1=O [Compound 171] | 0 | 0 | 0 | 0 | 0 | 0 | 0 | 0 | 0 | 0 | 0 | 0 | 1 | 3 | – | – | – | – | – | – | Rape plant response rating (rape; [1]): 0; Rape plant response rating (rape; [4]): 4; Plant response rating, Rape (rape; [6]): 0; Corn plant response rating (corn; [1]): 0; Corn plant response rating (corn; [4]): 0; Plant response rating, Corn (corn; [6]): 0; S. Flatsedge plant response rating (smallflower flatsedge; Postemergence (flood test species), Rate 125 g/ha, scale of 0 to 10 where 0 is no effect and 10 is complete control): 0; S. Flatsedge plant response rating (smallflower flatsedge; Rate 62 g/ha, Postemergence section, flood test species, scale of 0 to 10 where 0 is no effect and 10 is complete control): 0; Plant response rating, S. Flatsedge (smallflower flatsedge; Rate 250 g/ha, Postemergence (flood test), scale 0 to 10, 0 is no effect, 10 is complete control): 0; S. Flatsedge plant response rating (smallflower flatsedge; Rate 500 g/ha, listed under Postemergence (flood test species), scale 0 to 10): 0; Soybean plant response rating (soybean; [1]): 1; Soybean plant response rating (soybean; [4]): 0; Plant response rating, Soybean (soybean; [6]): 1 |
| Cc1nc(C)c(-n2c(=O)on(C(=O)N(c3ccc(F)cc3)C(C)C)c2=O)s1 [Compound 198] | 0 | 0 | 0 | 0 | 0 | 0 | 0 | 0 | 0 | 0 | 0 | 0 | 0 | 1 | 0 | 0 | 0 | 0 | 0 | 0 | Rape plant response rating (rape; [8]): 0; S. Flatsedge plant response rating (smallflower flatsedge; [11]): 0; S. Flatsedge plant response rating (smallflower flatsedge; [12]): 0; S. Flatsedge plant response rating (smallflower flatsedge; [13]): 0; S. Flatsedge plant response rating (smallflower flatsedge; [14]): 0; Plant response rating, Soybean (soybean; [9]): 0; Soybean plant response rating (soybean; [10]): 0; Plant response rating (0 to 10; 0 is no effect, 10 is complete control), Soybean (soybean; Rate 250 g/ha, Postemergence): 0 |
| COc1cc(C)cc(C)c1-n1c(=O)on(C(=O)N(c2ccc(F)cc2)C(C)C)c1=O [Compound 222] | 0 | – | 0 | – | 0 | – | – | 0 | – | 0 | – | – | 2 | – | 0 | 0 | 0 | 0 | 0 | 0 | Rape plant response rating (rape; [15]): 0; Rape plant response rating (rape; [16]): 0; Rape plant response rating (rape; [17]): 0; Corn plant response rating (corn; [15]): 0; Corn plant response rating (corn; [16]): 0; Corn plant response rating (corn; [17]): 0; S. Flatsedge plant response rating (smallflower flatsedge; [11]): 0; S. Flatsedge plant response rating (smallflower flatsedge; [12]): 0; S. Flatsedge plant response rating (smallflower flatsedge; [13]): 0; S. Flatsedge plant response rating (smallflower flatsedge; [14]): 0; Soybean plant response rating (soybean; [15]): 0; Plant response rating, Soybean (soybean; [9]): 0; Soybean plant response rating (soybean; [10]): 3; Soybean plant response rating (soybean; [16]): 0; Plant response rating (0 to 10; 0 is no effect, 10 is complete control), Soybean (soybean; Rate 250 g/ha, Postemergence): 3; Soybean plant response rating (soybean; [17]): 2 |
